Experimental data: publication PMC4076210, “Discovery of Novel AKT Inhibitors with Enhanced Anti-Tumor Effects in Combination with the MEK Inhibitor” (PLoS ONE, 2014)
Where two headings read alike, the source gives them in different places.

Columns and labels:
PDK1(h) = target: T1, PDK1(h) (Homo sapiens, UniProt O15530); assay: Kinase panel; type: biochemical
T1 construct: purchased Millipore KinaseProfiler
T1 sequence (O15530 1-556): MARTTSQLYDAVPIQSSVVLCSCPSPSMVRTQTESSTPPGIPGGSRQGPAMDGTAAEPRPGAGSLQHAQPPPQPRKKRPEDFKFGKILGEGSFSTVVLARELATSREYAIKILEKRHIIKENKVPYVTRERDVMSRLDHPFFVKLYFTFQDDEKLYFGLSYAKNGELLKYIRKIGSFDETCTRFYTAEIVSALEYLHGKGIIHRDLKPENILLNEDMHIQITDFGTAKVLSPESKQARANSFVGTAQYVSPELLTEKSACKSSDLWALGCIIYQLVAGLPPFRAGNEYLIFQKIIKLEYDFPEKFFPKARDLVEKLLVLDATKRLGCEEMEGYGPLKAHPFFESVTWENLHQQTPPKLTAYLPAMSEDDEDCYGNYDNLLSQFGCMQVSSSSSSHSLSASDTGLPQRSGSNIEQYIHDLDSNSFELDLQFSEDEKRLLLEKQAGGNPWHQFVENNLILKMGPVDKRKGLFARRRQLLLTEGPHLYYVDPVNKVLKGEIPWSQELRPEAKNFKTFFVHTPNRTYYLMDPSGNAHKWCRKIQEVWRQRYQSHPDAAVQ

PKCζ(h) = target: T2, PKCζ(h) (Homo sapiens, UniProt Q05513); assay: Kinase panel; type: biochemical
T2 construct: purchased Millipore KinaseProfiler
T2 sequence (Q05513 1-592): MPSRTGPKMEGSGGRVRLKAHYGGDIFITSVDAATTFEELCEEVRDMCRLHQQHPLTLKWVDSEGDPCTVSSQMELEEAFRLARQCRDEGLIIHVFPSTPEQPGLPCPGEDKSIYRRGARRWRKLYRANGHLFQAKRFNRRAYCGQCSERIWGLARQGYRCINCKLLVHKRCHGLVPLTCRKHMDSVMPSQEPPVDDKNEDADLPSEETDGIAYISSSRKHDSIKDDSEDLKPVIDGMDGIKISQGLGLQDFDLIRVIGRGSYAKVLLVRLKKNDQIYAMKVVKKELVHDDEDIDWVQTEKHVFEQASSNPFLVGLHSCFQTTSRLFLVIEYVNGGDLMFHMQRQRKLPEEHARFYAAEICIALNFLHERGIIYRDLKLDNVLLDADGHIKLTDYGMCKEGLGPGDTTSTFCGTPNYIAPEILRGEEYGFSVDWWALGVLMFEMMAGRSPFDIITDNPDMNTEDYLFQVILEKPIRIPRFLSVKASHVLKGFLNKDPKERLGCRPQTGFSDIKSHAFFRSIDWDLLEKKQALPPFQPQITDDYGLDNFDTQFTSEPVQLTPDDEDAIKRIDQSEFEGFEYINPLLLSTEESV

Lyn(h) = target: T3, Lyn(h) (Homo sapiens, UniProt P07948); assay: Kinase panel; type: biochemical
T3 construct: purchased Millipore KinaseProfiler

PAK3(h) = target: T4, PAK3(h) (Homo sapiens, UniProt O75914); assay: Kinase panel; type: biochemical
T4 construct: purchased Millipore KinaseProfiler

Fer(h) = target: T5, Fer(h) (Homo sapiens, UniProt P16591); assay: Kinase panel; type: biochemical
T5 construct: purchased Millipore KinaseProfiler

NEK11(h) = target: T6, NEK11(h) (Homo sapiens, UniProt Q8NG66); assay: Kinase panel; type: biochemical
T6 construct: purchased Millipore KinaseProfiler
T6 sequence (Q8NG66 1-645): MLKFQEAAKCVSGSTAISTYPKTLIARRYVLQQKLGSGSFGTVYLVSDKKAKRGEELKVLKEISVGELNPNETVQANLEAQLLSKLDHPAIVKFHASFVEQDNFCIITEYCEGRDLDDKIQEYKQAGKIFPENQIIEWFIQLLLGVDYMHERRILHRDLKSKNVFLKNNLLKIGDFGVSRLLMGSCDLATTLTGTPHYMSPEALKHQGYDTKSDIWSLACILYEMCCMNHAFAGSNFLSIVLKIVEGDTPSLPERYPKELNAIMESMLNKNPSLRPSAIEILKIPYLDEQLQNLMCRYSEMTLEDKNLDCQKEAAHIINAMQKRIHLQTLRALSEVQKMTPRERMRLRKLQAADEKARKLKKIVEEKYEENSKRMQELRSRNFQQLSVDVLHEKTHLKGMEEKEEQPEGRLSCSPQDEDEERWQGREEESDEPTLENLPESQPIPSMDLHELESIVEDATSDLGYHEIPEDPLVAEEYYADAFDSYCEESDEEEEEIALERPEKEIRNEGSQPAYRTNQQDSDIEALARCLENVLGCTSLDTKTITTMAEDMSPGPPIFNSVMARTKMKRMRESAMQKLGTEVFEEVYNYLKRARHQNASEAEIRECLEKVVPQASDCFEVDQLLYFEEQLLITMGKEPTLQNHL

cKit(V560G)(h) = target: T7, cKit(V560G)(h) (Homo sapiens, UniProt P10721, V560G); assay: Kinase panel; type: biochemical
T7 construct: purchased Millipore KinaseProfiler

CK1(y) = assay: Kinase panel; type: biochemical, yeast
AMPK(r) = assay: Kinase panel; type: biochemical, rat
Plk1(h) = target: T8, Plk1(h) (Homo sapiens, UniProt P53350); assay: Kinase panel; type: biochemical
T8 construct: purchased Millipore KinaseProfiler

[1] = Blood glucose after single oral dose; type: in vivo, mouse
Method: Blood glucose levels were determined from tail vein puncture in mice using a handheld glucometer. Plasma Insulin levels were using the Rat Ultrasensitive Insulin ELISA kit (Crystal Chem Inc).

cKit(D816V)(h) = target: T9, cKit(D816V)(h) (Homo sapiens, UniProt P10721, D816V); assay: Kinase panel; type: biochemical
T9 construct: purchased Millipore KinaseProfiler
T9 sequence (P10721 26-976 D816V): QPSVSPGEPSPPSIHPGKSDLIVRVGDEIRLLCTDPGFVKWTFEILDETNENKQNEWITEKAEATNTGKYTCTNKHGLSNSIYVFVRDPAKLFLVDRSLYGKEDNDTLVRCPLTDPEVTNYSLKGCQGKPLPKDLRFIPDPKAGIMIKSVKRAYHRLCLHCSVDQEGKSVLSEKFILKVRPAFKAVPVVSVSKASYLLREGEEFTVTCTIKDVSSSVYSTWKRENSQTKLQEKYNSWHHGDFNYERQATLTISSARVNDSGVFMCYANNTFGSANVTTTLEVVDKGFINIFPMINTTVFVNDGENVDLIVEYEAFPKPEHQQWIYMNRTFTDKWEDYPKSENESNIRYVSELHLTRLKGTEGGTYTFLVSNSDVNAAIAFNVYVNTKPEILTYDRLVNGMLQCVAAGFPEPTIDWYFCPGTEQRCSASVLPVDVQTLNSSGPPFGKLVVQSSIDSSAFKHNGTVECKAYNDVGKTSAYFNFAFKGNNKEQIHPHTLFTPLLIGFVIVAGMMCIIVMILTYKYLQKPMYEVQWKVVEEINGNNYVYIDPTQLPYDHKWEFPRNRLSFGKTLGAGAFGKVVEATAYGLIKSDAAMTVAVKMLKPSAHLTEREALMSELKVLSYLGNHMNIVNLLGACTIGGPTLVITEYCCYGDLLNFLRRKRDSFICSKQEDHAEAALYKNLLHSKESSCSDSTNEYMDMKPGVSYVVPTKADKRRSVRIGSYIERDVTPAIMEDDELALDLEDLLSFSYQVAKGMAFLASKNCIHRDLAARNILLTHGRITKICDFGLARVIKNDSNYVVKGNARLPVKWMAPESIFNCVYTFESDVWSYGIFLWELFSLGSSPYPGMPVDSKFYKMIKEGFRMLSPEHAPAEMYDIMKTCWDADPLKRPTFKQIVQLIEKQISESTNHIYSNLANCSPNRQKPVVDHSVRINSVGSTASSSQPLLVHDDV

T3 sequence (P07948 whole entry): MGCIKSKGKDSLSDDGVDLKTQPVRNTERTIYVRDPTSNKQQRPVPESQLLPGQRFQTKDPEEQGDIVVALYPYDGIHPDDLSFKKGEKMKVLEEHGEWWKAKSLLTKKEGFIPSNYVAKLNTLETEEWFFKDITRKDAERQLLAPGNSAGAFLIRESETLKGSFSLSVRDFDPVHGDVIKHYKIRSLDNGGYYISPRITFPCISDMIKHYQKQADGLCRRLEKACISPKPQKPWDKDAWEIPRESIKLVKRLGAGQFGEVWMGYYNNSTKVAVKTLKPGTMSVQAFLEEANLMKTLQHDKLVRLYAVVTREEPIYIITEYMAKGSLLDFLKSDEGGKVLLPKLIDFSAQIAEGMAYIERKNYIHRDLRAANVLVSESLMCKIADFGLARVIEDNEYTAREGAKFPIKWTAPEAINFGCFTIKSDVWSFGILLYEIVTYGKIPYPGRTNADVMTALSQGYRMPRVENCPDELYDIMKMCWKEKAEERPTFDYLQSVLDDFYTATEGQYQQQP
T5 sequence (P16591 whole entry): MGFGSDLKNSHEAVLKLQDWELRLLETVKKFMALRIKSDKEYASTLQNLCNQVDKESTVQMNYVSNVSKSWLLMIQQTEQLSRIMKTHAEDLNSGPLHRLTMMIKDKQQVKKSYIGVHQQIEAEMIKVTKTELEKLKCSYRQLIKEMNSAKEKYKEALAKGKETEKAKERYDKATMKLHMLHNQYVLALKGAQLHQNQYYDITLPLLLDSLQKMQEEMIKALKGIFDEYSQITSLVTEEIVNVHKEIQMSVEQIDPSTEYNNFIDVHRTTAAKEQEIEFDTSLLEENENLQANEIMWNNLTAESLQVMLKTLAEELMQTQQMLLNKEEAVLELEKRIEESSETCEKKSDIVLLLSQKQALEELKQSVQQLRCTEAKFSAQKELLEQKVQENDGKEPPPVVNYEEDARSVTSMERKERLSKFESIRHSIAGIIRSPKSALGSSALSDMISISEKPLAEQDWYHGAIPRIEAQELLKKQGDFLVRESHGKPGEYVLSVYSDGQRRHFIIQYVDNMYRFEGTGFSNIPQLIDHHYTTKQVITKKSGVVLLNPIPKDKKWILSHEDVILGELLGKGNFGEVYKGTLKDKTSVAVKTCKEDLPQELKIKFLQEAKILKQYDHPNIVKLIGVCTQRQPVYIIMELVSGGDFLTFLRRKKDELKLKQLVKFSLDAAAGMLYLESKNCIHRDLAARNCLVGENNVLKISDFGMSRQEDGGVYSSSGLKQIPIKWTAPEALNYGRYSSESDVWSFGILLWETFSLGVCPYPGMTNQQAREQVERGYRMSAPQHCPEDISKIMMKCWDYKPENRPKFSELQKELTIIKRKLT
T7 sequence (P10721 26-976 V560G): as the sequence (P10721 26-976 D816V) above, with V535G, V791D counted along it
T4 sequence (O75914 whole entry): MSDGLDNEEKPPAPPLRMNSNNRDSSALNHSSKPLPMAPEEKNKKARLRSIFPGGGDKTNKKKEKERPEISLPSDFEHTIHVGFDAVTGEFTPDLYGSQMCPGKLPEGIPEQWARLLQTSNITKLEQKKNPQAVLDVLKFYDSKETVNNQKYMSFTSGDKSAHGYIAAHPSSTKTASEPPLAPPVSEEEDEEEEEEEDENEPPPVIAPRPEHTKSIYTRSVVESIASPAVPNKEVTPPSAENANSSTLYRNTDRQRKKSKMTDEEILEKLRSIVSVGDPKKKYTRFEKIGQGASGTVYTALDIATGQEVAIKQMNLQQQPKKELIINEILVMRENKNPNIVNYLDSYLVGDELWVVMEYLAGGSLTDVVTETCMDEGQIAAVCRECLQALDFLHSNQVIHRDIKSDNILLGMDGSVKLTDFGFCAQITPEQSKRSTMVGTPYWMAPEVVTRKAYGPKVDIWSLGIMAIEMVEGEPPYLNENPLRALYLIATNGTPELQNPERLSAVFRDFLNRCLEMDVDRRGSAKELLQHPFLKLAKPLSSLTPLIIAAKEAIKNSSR
T8 sequence (P53350 whole entry): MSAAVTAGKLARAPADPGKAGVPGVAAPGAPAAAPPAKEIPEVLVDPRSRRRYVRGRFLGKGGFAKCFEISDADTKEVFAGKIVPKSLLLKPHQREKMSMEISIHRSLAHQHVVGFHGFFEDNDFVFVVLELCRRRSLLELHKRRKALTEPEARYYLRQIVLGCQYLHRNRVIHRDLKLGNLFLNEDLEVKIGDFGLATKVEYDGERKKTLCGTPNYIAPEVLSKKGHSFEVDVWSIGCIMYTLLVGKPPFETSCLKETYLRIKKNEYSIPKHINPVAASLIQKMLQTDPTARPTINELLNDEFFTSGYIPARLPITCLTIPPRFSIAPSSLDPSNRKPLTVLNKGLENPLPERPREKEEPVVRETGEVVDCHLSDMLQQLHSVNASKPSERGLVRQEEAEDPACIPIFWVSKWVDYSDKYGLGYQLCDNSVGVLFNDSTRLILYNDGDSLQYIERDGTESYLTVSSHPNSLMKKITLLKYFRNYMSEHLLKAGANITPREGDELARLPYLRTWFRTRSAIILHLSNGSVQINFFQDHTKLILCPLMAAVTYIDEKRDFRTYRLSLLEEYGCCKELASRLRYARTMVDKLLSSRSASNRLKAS

Which results are given for Cn1ncc(Cl)c1-c1cc(C(=O)N[C@H](CN)Cc2cccc(F)c2)sc1Cl [GSK2110183]?
inhibition at 0.5 µM (PDK1(h)): -12%; inhibition at 10 µM (PDK1(h)): -6%; inhibition at 0.5 µM (PKCζ(h)): -4%; inhibition at 10 µM (PKCζ(h)): 37%; inhibition at 0.5 µM (Lyn(h)): -12%; inhibition at 10 µM (Lyn(h)): 7%; inhibition at 0.5 µM (PAK3(h)): -2%; inhibition at 10 µM (PAK3(h)): 62%; inhibition at 0.5 µM (Fer(h)): -8%; inhibition at 10 µM (Fer(h)): 16%; inhibition at 0.5 µM (NEK11(h)): -13%; inhibition at 10 µM (NEK11(h)): -11%; inhibition at 0.5 µM (cKit(V560G)(h)): -6%; inhibition at 10 µM (cKit(V560G)(h)): 4%; % Inhibition (CK1(y); 0.5 µM): 3%; % Inhibition (CK1(y); 10 µM): 54%; % Inhibition (AMPK(r); 0.5 µM): 3%; % Inhibition (AMPK(r); 10 µM): 56%; inhibition at 0.5 µM (Plk1(h)): -21%; inhibition at 10 µM (Plk1(h)): -6%; time for blood glucose to return to normal levels ([1]; 100 mg/kg single oral dose): ≤ 8 h; blood glucose level ([1]; 100 mg/kg single oral dose, 2 h post dosing): 211 mg/dL; inhibition at 0.5 µM (cKit(D816V)(h)): 0%; inhibition at 10 µM (cKit(D816V)(h)): 9%

With Cn1ncc(Cl)c1-c1cc(C(=O)N[C@H](CN)Cc2ccc(F)c(F)c2)oc1Cl [GSK2141795] as the compound, how does the inhibition at 0.5 µM (PDK1(h); 0.5 µM, read-out: % Inhibition) read?
Its inhibition at 0.5 µM is 3%.

And the inhibition at 10 µM (PDK1(h); 10 µM, read-out: % Inhibition)?
The inhibition at 10 µM was 19%.

And the inhibition at 0.5 µM (PKCζ(h); 0.5 µM, read-out: % Inhibition)?
The inhibition at 0.5 µM was 5%.

And the inhibition at 10 µM (PKCζ(h); 10 µM, read-out: % Inhibition)?
Its inhibition at 10 µM is 74%.

What about the inhibition at 0.5 µM (Lyn(h); 0.5 µM, read-out: % Inhibition) of the same compound?
Its inhibition at 0.5 µM is -10%.

What about the inhibition at 10 µM (Lyn(h); 10 µM, read-out: % Inhibition) of the same compound?
The inhibition at 10 µM was 41%.

And the inhibition at 0.5 µM (PAK3(h); 0.5 µM, read-out: % Inhibition)?
Its inhibition at 0.5 µM is 6%.

What about the inhibition at 10 µM (PAK3(h); 10 µM, read-out: % Inhibition) of the same compound?
Its inhibition at 10 µM is 28%.

And the inhibition at 0.5 µM (Fer(h); 0.5 µM, read-out: % Inhibition)?
Its inhibition at 0.5 µM is 1%.

What about the inhibition at 10 µM (Fer(h); 10 µM, read-out: % Inhibition) of the same compound?
The inhibition at 10 µM was -4%.

What about the inhibition at 0.5 µM (NEK11(h); 0.5 µM, read-out: % Inhibition) of the same compound?
The inhibition at 0.5 µM was -11%.

What about the inhibition at 10 µM (NEK11(h); 10 µM, read-out: % Inhibition) of the same compound?
Its inhibition at 10 µM is -2%.

And the inhibition at 0.5 µM (cKit(V560G)(h); 0.5 µM, read-out: % Inhibition)?
Its inhibition at 0.5 µM is -25%.

And the inhibition at 10 µM (cKit(V560G)(h); 10 µM, read-out: % Inhibition)?
Its inhibition at 10 µM is 16%.

What about the “% Inhibition” value (CK1(y); 0.5 µM) of the same compound?
Its value is 35%.

And the “% Inhibition” value (CK1(y); 10 µM)?
The value was 93%.

What about the “% Inhibition” value (AMPK(r); 0.5 µM) of the same compound?
Its value is 10%.

What about the “% Inhibition” value (AMPK(r); 10 µM) of the same compound?
Its value is 76%.

And the inhibition at 0.5 µM (Plk1(h); 0.5 µM, read-out: % Inhibition)?
The inhibition at 0.5 µM was -34%.

What about the inhibition at 10 µM (Plk1(h); 10 µM, read-out: % Inhibition) of the same compound?
Its inhibition at 10 µM is 8%.

And the blood glucose level ([1]; maximal tolerated dose of 30 mg/kg, daily)?
The blood glucose level was 200 to 300 mg/dL.

And the “time for glucose to return to normal” value ([1]; single 30 mg/kg dose)?
Its value is ≤ 8 h.

And the blood glucose level ([1]; single 30 mg/kg dose, 2 h post dosing)?
Its blood glucose level is 200 mg/dL.

And the inhibition at 0.5 µM (cKit(D816V)(h); 0.5 µM, read-out: % Inhibition)?
Its inhibition at 0.5 µM is -17%.

What about the inhibition at 10 µM (cKit(D816V)(h); 10 µM, read-out: % Inhibition) of the same compound?
The inhibition at 10 µM was -16%.
